In patent publication US8106197B2, “Aminoheteroaryl compounds as protein kinase inhibitors” (Pfizer Inc., priority 2003, dated 2012):

The compounds below were run against T1, HGFR (Homo sapiens, UniProt P08581) (assay: HGFR continuous-coupled spectrophotometric assay). Conditions: not given.
T1 construct: purchased Upstate 14-526
Assay type: biochemical

T1 sequence (P08581 974-1390 limits assumed): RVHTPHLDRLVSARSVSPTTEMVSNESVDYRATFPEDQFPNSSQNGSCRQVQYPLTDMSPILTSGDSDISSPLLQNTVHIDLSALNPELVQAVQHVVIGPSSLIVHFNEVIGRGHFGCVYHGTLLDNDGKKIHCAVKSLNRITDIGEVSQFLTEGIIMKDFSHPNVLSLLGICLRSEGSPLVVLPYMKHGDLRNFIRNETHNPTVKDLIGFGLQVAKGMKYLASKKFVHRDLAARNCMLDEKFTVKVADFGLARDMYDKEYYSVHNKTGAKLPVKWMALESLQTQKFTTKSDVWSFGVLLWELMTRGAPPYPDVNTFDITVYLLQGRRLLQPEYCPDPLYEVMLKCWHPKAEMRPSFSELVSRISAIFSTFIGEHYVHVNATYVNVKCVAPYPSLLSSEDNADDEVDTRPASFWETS

| % inhibition | SMILES |
| --- | --- |
| % inhibition = 19 | Nc1ncc(-c2ccc(C(=O)N3CCC(N4CCCC4)CC3)cc2)cc1OCc1ccc(F)c(F)c1 |
| % inhibition = 24 | Nc1ncc(-c2ccc(C(=O)N3CCC(N4CCCC4)CC3)cc2)cc1OCc1ccc(C(F)(F)F)c(F)c1 |
| % inhibition = 28 | Nc1ncc(-c2ccc(C(=O)N3CCC(N4CCCC4)CC3)cc2)cc1OCc1cccc(Cl)c1F |
| % inhibition = 17 | Nc1ncc(-c2ccc(C(=O)N3CCC(N4CCCC4)CC3)cc2)cc1OCc1nc2ncccc2o1 |
| % inhibition = 20 | Nc1ncc(-c2ccc(C(=O)N3CCC(N4CCCC4)CC3)cc2)cc1OCc1ccc(OC(F)(F)F)cc1 |
| % inhibition = 12 | Nc1ncc(-c2ccc(C(=O)N3CCC(N4CCCC4)CC3)cc2)cc1OCc1ccc(C(F)(F)F)cc1C(F)(F)F |
| % inhibition = 11 | Nc1ncc(-c2ccc(C(=O)N3CCC(N4CCCC4)CC3)cc2)cc1OCc1nc(-c2ccc(C(=O)N3CCCC3)cc2)no1 |
| % inhibition = 17 | COc1cc(COc2cc(-c3ccc(C(=O)N4CCC(N5CCCC5)CC4)cc3)cnc2N)cc(OC)c1 |
| % inhibition = 26 | Cc1ccc(COc2cc(-c3ccc(C(=O)N4CCC(N5CCCC5)CC4)cc3)cnc2N)cc1Cl |
| % inhibition = 8 | Nc1ncc(-c2ccc(C(=O)N3CCC(N4CCCC4)CC3)cc2)cc1OCc1ncc(C(F)(F)F)cc1Cl |
| % inhibition = 41 | Nc1ncc(-c2ccc(C(=O)N3CCC(N4CCCC4)CC3)cc2)cc1OCc1ccc(-c2csnn2)cc1 |
| % inhibition = 8 | Cc1cc(COc2cc(-c3ccc(C(=O)N4CCC(N5CCCC5)CC4)cc3)cnc2N)nc(-c2ccc(C(F)(F)F)cn2)n1 |
| % inhibition = 17 | Nc1ncc(-c2ccc(C(=O)N3CCC(N4CCCC4)CC3)cc2)cc1OCc1ccc(-c2ccnc(Br)n2)cc1 |
| % inhibition = 63 | Cn1nc(-c2ccccc2)c(COc2cc(-c3ccc(C(=O)N4CCC(N5CCCC5)CC4)cc3)cnc2N)c1Cl |
| % inhibition = 15 | Nc1ncc(-c2ccc(C(=O)N3CCC(N4CCCC4)CC3)cc2)cc1OCc1cccc(CO)n1 |
| % inhibition = 19 | Cc1oc(-c2ccccc2)nc1COc1cc(-c2ccc(C(=O)N3CCC(N4CCCC4)CC3)cc2)cnc1N |
| % inhibition = 45 | Nc1ncc(-c2ccc(C(=O)N3CCC(N4CCCC4)CC3)cc2)cc1OCc1cc(Br)cc(Br)c1 |
| % inhibition = 10 | Nc1ncc(-c2ccc(C(=O)N3CCC(N4CCCC4)CC3)cc2)cc1OCc1ccncc1 |
| % inhibition = 19 | Cc1onc(-c2ccccc2)c1COc1cc(-c2ccc(C(=O)N3CCC(N4CCCC4)CC3)cc2)cnc1N |
| % inhibition = 11 | Nc1ncc(-c2ccc(C(=O)N3CCC(N4CCCC4)CC3)cc2)cc1OCc1ccc(C(=O)NCCc2ccccn2)cc1 |
| % inhibition = 18 | Cc1cc(=O)n2nc(COc3cc(-c4ccc(C(=O)N5CCC(N6CCCC6)CC5)cc4)cnc3N)nc2[nH]1 |
| % inhibition = 13 | Nc1ncc(-c2ccc(C(=O)N3CCC(N4CCCC4)CC3)cc2)cc1OCc1ccc(S(=O)(=O)c2ccc(F)cc2)cc1 |
| % inhibition = 21 | CC(Oc1cc(-c2ccc(C(=O)N3CCC(N4CCCC4)CC3)cc2)cnc1N)c1ccccc1C(F)(F)F (stereo not shown) |
| % inhibition = 50 | Nc1ncc(-c2ccc(C(=O)N3CCC(N4CCCC4)CC3)cc2)cc1OCc1c(F)ccc(F)c1Cl |
| % inhibition = 14 | Nc1ncc(-c2ccc(C(=O)N3CCC(N4CCCC4)CC3)cc2)cc1OCc1nnn[nH]1 |
| % inhibition = 8 | N#Cc1ccc(COc2cc(-c3ccc(C(=O)N4CCC(N5CCCC5)CC4)cc3)cnc2N)cc1 |
| % inhibition = 9 | Nc1ncc(-c2ccc(C(=O)N3CCC(N4CCCC4)CC3)cc2)cc1OCc1ncccn1 |
| % inhibition = 8 | Cc1oc(-c2cccc(F)c2)nc1COc1cc(-c2ccc(C(=O)N3CCC(N4CCCC4)CC3)cc2)cnc1N |
| % inhibition = 10 | Cc1ccnc2nc(COc3cc(-c4ccc(C(=O)N5CCC(N6CCCC6)CC5)cc4)cnc3N)cn12 |
| % inhibition = 10 | Nc1ncc(-c2ccc(C(=O)N3CCC(N4CCCC4)CC3)cc2)cc1OCc1nnsc1Cl |

Same assay, conditions: Table 3; Ki(μM) or I(%); test concentration not given

| I(%) | SMILES |
| --- | --- |
| 22% | CCOc1ccccc1-c1cnc(N)c(OC(C)c2c(Cl)ccc(F)c2Cl)c1 (stereo not shown) [Example I-555, 3-[1-(2,6-Dichloro-3-fluoro-phenyl)-ethoxy]-5-(2-ethoxy-phenyl)-pyridin-2-ylamine] |
| 0% | COC(=O)c1cccc(COc2cc(-c3ccc(C(=O)N4CC(C)NC(C)C4)cc3)cnc2N)c1 (stereo not shown) [Example I-626, 3-{2-Amino-5-[4-(3,5-dimethyl-piperazine-1-carbonyl)-phenyl]-pyridin-3-yloxymethyl}-benzoic acid methyl ester] |
| 14% | CC(Oc1cc(-c2ccccc2OC(F)(F)F)cnc1N)c1c(Cl)ccc(F)c1Cl (stereo not shown) [Example I-561, 3-[1-(2,6-Didiloro-3-fluoro-phenyl)-ethoxy]-5-(2-trifluoromethoxy-phenyl)-pyridin-2-ylamine] |
| 21% | CC(Oc1cc(-c2ccccc2CO)cnc1N)c1c(Cl)ccc(F)c1Cl (stereo not shown) [Example I-564, (2-{6-Amino-5-[1-(2,6-dichloro-3 fluoro-phenyl)-ethoxy]pyridin-3-yl}-phenyl)-methanol] |
| 8% | CC(=O)c1ccccc1-c1cnc(N)c(OC(C)c2c(Cl)ccc(F)c2Cl)c1 (stereo not shown) [Example I-562, 1-(2-{6-Amino-5-[1-(2,6-dichloro-3-fluoro-phenyl)-ethoxy]-pyridin-3-yl}-phenyl)-ethanone] |

| SMILES | I(%) |
| --- | --- |
| CC1CN(C(=O)c2ccc(-c3cnc(N)c(OCc4ccccc4)c3)cc2)CC(C)N1 (stereo not shown) [Example I-621, {4-(6-Amino-5-benzyloxy-pyridin-3-yl)-phenyl]-(3,5-dimethyl-piperazin-1-yl)-methanone] | 6% |

Same assay, conditions: Table 5; percent c-MET inhibition at 50 nM

| inhibition at 0.05 µM | SMILES |
| --- | --- |
| 56% | CC(NC(=O)c1ccc(-c2cnc(N)c(OC(C)c3c(Cl)ccc(F)c3Cl)c2)cc1)c1ccc(F)cc1 (stereo not shown) |
| 64% | CCC(C)NC(=O)c1ccc(-c2cnc(N)c(OC(C)c3c(Cl)ccc(F)c3Cl)c2)cc1 (stereo not shown) |
| 70% | CC(=O)N(C)C1CCN(C(=O)c2ccc(-c3cnc(N)c(OC(C)c4c(Cl)ccc(F)c4Cl)c3)cc2)C1 (stereo not shown) |

Same assay, conditions: Table 6; percent c-MET inhibition at 1 μM; read-out: % inhibition

| SMILES | inhibition at 1 µM |
| --- | --- |
| Nc1ncc(C(=O)NC2COC3(CCN(Cc4ccncc4)CC3)C2)cc1OCc1c(Cl)cccc1Cl (stereo not shown) | 20% |
| Nc1ncc(C(=O)NCc2c(F)cccc2F)cc1OCc1c(Cl)cccc1Cl | 32% |
| Nc1ncc(C(=O)NCCO)cc1OCc1c(Cl)cccc1Cl | 34% |
| Nc1ncc(C(=O)NCCc2nc3ccccc3s2)cc1OCc1c(Cl)cccc1Cl | 26% |
| CC(C)CCNC(=O)c1cnc(N)c(OCc2c(Cl)cccc2Cl)c1 | 26% |
| Nc1ncc(C(=O)N2CCC3(CC2)CC3C(=O)NCC2CC2)cc1OCc1c(Cl)cccc1Cl (stereo not shown) | 32% |
| Nc1ncc(C(=O)N2CCC3(CC2)CC(N2CCC(O)CC2)CO3)cc1OCc1c(Cl)cccc1Cl (stereo not shown) | 28% |
| COc1cc(CCNC(=O)c2cnc(N)c(OCc3c(Cl)cccc3Cl)c2)ccc1O | 32% |
| COCC1CN(CC(N)=O)CCN(C(=O)c2cnc(N)c(OCc3c(Cl)cccc3Cl)c2)C1 (stereo not shown) | 23% |
| Nc1ncc(C(=O)N2CCC3(CC2)CC(N2CCNC(=O)C2)CO3)cc1OCc1c(Cl)cccc1Cl (stereo not shown) | 17% |
| Nc1ncc(C(=O)NCc2ccc(O)cc2)cc1OCc1c(Cl)cccc1Cl | 37% |
| Nc1ncc(C(=O)NCCOc2ccccc2)cc1OCc1c(Cl)cccc1Cl | 66% |
| Nc1ncc(C(=O)N2CCN(CCO)CC2)cc1OCc1c(Cl)cccc1Cl | 51% |
| Nc1ncc(C(=O)NCC2COc3ccccc3O2)cc1OCc1c(Cl)cccc1Cl (stereo not shown) | 34% |
| CN(C)CC(C)(C)CNC(=O)c1cnc(N)c(OCc2c(Cl)cccc2Cl)c1 | 38% |
| Nc1ncc(C(=O)NCc2cccc(OC(F)F)c2)cc1OCc1c(Cl)cccc1Cl | 32% |
| Nc1ncc(C(=O)NCc2cc3cc[nH]c3cn2)cc1OCc1c(Cl)cccc1Cl | 28% |

| SMILES | inhibition at 1 µM |
| --- | --- |
| Nc1ncc(C(=O)N[C@@H]2c3ccccc3C[C@@H]2O)cc1OCc1c(Cl)cccc1Cl | 23% |
| Nc1ncc(C(=O)N2CCCC2c2ccncc2)cc1OCc1c(Cl)cccc1Cl (stereo not shown) | 19% |
| Nc1ncc(C(=O)NCc2cn3cc(Cl)ccc3n2)cc1OCc1c(Cl)cccc1Cl | 38% |
| Nc1ncc(C(=O)NCCCN2CCOCC2)cc1OCc1c(Cl)cccc1Cl | 26% |
| CC(C)CCNC(=O)C1CC12CCN(C(=O)c1cnc(N)c(OCc3c(Cl)cccc3Cl)c1)CC2 (stereo not shown) | 21% |
| CC(C)NC(=O)CN1CCN(C(=O)c2cnc(N)c(OCc3c(Cl)cccc3Cl)c2)CC1 | 30% |
| Nc1ncc(C(=O)NCCc2ccncc2)cc1OCc1c(Cl)cccc1Cl | 30% |
| CC(CN(C)C)NC(=O)c1cnc(N)c(OCc2c(Cl)cccc2Cl)c1 (stereo not shown) | 45% |
| Nc1ncc(C(=O)N2CCC(CCO)CC2)cc1OCc1c(Cl)cccc1Cl | 45% |
| Nc1ncc(C(=O)NCc2ccccc2Br)cc1OCc1c(Cl)cccc1Cl | 36% |
| Nc1ncc(C(=O)NC[C@H]2CCCC[C@H]2O)cc1OCc1c(Cl)cccc1Cl | 24% |
| Cc1noc([C@H]2CC[C@H](CNC(=O)c3cnc(N)c(OCc4c(Cl)cccc4Cl)c3)CC2)n1 | 3% |
| Nc1ncc(C(=O)N2CCN(c3ccc(Br)cn3)CC2)cc1OCc1c(Cl)cccc1Cl | 5% |
| CCCC(CO)NC(=O)c1cnc(N)c(OCc2c(Cl)cccc2Cl)c1 (stereo not shown) | 30% |
| CCCN(CCO)C1CCCN(C(=O)c2cnc(N)c(OCc3c(Cl)cccc3Cl)c2)CC1 (stereo not shown) | 17% |
| Nc1ncc(C(=O)NCCc2c[nH]cn2)cc1OCc1c(Cl)cccc1Cl | 29% |

Second part, the compound after the results:

| inhibition at 1 µM | SMILES |
| --- | --- |
| 33% | CCN(CC)C(=O)C1CCCN(C(=O)c2cnc(N)c(OCc3c(Cl)cccc3Cl)c2)C1 (stereo not shown) |
| 32% | Nc1ncc(C(=O)N2CCC(C(=O)c3ccccc3)CC2)cc1OCc1c(Cl)cccc1Cl |
| 10% | Nc1ncc(C(=O)N2CCC(COCc3ccccc3F)CC2)cc1OCc1c(Cl)cccc1Cl |
| 31% | CC(=O)N(C)C1CCN(C(=O)c2cnc(N)c(OCc3c(Cl)cccc3Cl)c2)C1 (stereo not shown) |
